The text below walks through data of patent US20250281453A1, “COMBINATION THERAPIES COMPRISING QTX125” (QUIMATRYX, S.L., priority 2022, published 2025).

Series [1] relates to HCT-116 colonic cancer cells. Kind of series: QTX125-containing combination therapy, hexosaminidase cell viability. The class given is cell-based. To be noted: for combination index (C.I.): HCT-116; for EC50: Homo sapiens, HCT-116, HCT-116. Here is the method: To assess the oncolytic efficacy of QTX125-containing combination therapies in vitro, colonic, pancreatic, hepatic and ovarian tumour cells were administered sorafenib, gemcitabine or bortezomib at EC25, EC50 and EC75 doses. QTX125 was co-administered in order to produce a dose response curve.
To prepare cells for viability assays, cells were transferred into 96 well tissue culture plates (Cultek), and resuspended in 100 µL at the following densities: 10,000 cells/well (Hep-G2 and MiaPaCa-2), 5000 cells/well (Panc-1 and SK-OV-3) or 3000 cells/well (HCT-116). Following 24 hours of incubation, media was removed and replaced with 100 µL media spiked with QTX125 and the test chemotherapeutic agents. Stock solutions for the agents used in this study are shown below in Table 1. Cells were incubated for a further 72 hours before cell viability was assessed using both ALAMAR® and hexosaminidase assays.
For the hexosaminidase assay, media containing QTX125 and the test chemotherapeutic agents was removed, and cells were washed once with PBS. 60 μL of substrate solution (containing: 7.5 mM p-nitrophenol-N-acetyl-beta-D-glucosamide [Sigma N-9376], 0.1 M sodium citrate, pH 5.0 and 0.25% Triton X-100) was added to each well and cells were incubated at 37° C. for at least 1 hour. Incubating cells in this manner causes the substrate solution to become bright yellow, at which point 90 μL of developer solution (containing 50 mM Glycine pH 10.4 and 5 mM EDTA) was added to each well. Absorbance at 410 nm was recorded using a plate reader.
Control values were normalised to 100% and percentage (%) viability was calculated. Data were used to plot log dose-response curves using a sigmoid dose-response (variable slope) equation. EC50 values were obtained using Equation 1, where ‘X’ is the logarithmic concentration; ‘Y’ is the response output and it is assumed that Y starts at bottom of the graph and reaches the top with an overall sigmoid shape.
Cls were obtained using Equation 2, where (Dm) 1 is the ECx concentration of QTX125 and (D) 1 is the ECx concentration of QTX125 in the presence of sorafenib, gemcitabine or bortezomib.
In order to assess the oncolytic efficacy of QTX125-containing combination therapies, monotherapy EC25, EC50 and EC75 doses for sorafenib, gemcitabine and bortezomib were calculated (as per Experiment 3) and administered to wells at these fixed concentrations. QTX125 was co-administered at a range of concentrations, in order to plot a dose-response curve such that the EC50 dose of QTX125 could be calculated in the presence of sorafenib/gemcitabine/bortezomib. QTX125 was administered to cells at a starting high-dose, and a 1:1 dilution was completed thereafter. In this part of the study, only the hexosaminidase assay was employed to assess cell viability following treatment with QTX125-containing combination therapies.
It should be noted that it was not possible to determine the appropriate concentrations for gemcitabine in all cell lines tested. In cells resistant to gemcitabine, nominal concentrations were used in place of EC25, EC50 and EC75 doses (e.g., nominal doses of 1, 10 and 100 µM were used in Panc-1 and Hep-G2 cells).

Series [2] in a line: Genotoxicity (clastogenicity, aneugenicity). To be noted: unlike other histone deacetylase inhibitors.
The target in a further series is T1, HDAC 6 (Homo sapiens, UniProt Q9UBN7).
T1 sequence (Q9UBN7 1-1215): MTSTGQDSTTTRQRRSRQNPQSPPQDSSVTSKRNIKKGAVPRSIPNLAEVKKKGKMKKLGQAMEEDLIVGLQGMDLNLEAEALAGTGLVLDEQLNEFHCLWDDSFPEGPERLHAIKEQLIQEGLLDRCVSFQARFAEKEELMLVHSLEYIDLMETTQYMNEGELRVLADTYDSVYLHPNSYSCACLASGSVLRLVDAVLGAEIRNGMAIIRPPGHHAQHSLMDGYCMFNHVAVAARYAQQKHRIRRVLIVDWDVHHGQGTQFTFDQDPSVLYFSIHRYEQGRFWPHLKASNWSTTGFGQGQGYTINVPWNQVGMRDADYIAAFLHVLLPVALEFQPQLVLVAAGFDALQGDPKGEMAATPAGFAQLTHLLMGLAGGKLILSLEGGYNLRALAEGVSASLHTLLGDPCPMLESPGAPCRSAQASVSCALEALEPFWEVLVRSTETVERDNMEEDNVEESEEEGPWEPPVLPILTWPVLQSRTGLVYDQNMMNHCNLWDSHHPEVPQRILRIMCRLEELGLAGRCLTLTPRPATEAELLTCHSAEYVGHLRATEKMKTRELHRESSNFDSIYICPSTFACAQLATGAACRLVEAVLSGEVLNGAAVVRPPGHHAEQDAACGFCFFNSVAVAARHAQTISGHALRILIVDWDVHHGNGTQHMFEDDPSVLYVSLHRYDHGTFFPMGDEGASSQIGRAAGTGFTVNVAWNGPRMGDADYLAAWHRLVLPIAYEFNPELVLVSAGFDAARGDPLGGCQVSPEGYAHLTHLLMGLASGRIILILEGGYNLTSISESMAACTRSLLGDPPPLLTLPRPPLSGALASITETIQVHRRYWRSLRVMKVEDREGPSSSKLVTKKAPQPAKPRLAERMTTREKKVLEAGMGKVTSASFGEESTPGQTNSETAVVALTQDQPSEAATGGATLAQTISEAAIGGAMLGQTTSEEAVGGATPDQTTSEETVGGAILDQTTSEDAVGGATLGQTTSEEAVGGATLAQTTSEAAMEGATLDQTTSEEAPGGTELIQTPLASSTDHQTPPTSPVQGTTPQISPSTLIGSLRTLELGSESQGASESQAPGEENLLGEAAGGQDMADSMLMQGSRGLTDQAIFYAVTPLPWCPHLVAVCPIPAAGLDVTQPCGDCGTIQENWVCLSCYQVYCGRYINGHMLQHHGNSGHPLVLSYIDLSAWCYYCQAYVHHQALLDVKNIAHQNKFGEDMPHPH
The note with it: cited from earlier work.

[3] abbreviates: + bortezomib at EC25 dose (0.005 μM).
The mark [4] stands for this setting: + bortezomib at EC50 dose (0.007 μM).
[5] abbreviates: + bortezomib at EC75 dose (0.01 μM).
[6] abbreviates: + gemcitabine at EC25 dose (0.001 μM).
The mark [7] stands for this setting: + sorafenib at EC25 dose (2 μM).
Where [8] appears, read: + sorafenib at EC50 dose (3.6 μM).
The mark [9] stands for this setting: + sorafenib at EC75 dose (6.5 μM).

Broadly, the EC50 is the concentration needed to bring the measured effect to its halfway point. As to `O=C(NO)c1ccc(CNC(=O)c2[nH]c(-c3ccc(O)cc3)cc2-c2ccoc2)cc1` [QTX125, 3-(3-Furyl)-N-{4-[(hydroxyamino)carbonyl]benzyl}-5-(4-hydroxyphenyl)-1 Hpyrrole-2-carboxamide], the “combination index (C.I.)” value in series [1] (setting [3]) is recorded as 1.0 arbitrary units; in series [1] (setting [4]), 1.1 arbitrary units; in series [1] (setting [5]) it was 0.9 arbitrary units; in series [1] (setting [6]) it was 1.1 arbitrary units; in series [1] (setting [7]), 0.9 arbitrary units; in series [1] (setting [8]) it was 0.9 arbitrary units. Besides, in series [1] (setting [9]), the “combination index (C.I.)” value amounted to 0.9 arbitrary units. The EC50 was 2460 nM in series [1] (setting [3]); 2540 nM in series [1] (setting [4]); 2140 nM in series [1] (setting [5]); 322 nM in series [1] (setting [6]); 2350 nM in series [1] (setting [7]); 2210 nM in series [1] (setting [8]). Also, the EC50 in series [1] (setting [9]) was determined as 2260 nM; in series [1] (no second agent (control of Table 5.1.1)), 2590 nM; in series [1] (no second agent (control of Table 5.1.2)), 305 nM; in series [1] (no second agent (control of Table 5.1.3)), 2360 nM. Further, the “genotoxicity, in particular clastogenicity or aneugenicity” value in series [2] is on record as “no evidence of genotoxicity”. For the same compound, the “HDAC 6 inhibition” value on HDAC 6 is “highly selective and highly potent”.
